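Where inhibition never reached the appropriate level, the endpoint shown equals the highest concentration tested. Otherwise, values were interpolated linearly from a five-concentration, 48-hour dose response in 96-well plates. TGI marks complete inhibition of growth.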
Legend:
Assay in all cases: NCI anticancer screen, dose series, 48 h
MDA-MB-435 = system: MDA-MB-435
BT-549 breast = system: BT-549 breast
NCI-H23 lung = system: NCI-H23 lung
CCRF-CEM leukemia = system: CCRF-CEM leukemia
OVCAR-3 ovarian = system: OVCAR-3 ovarian
KM12 colon = system: KM12 colon
HT29 colon = system: HT29 colon
TK-10 renal = system: TK-10 renal
NCI/ADR-RES ovarian = system: NCI/ADR-RES ovarian
M14 melanoma = system: M14 melanoma
MDA-N = system: MDA-N
CAKI-1 renal = system: CAKI-1 renal
SF-539 CNS = system: SF-539 CNS
LOX IMVI melanoma = system: LOX IMVI melanoma
SK-MEL-28 melanoma = system: SK-MEL-28 melanoma

Structure (SMILES) | TGI (MDA-MB-435) [µM] | TGI (BT-549 breast) [µM] | TGI (NCI-H23 lung) [µM] | TGI (CCRF-CEM leukemia) [µM] | TGI (OVCAR-3 ovarian) [µM] | TGI (KM12 colon) [µM] | TGI (HT29 colon) [µM] | TGI (TK-10 renal) [µM] | TGI (NCI/ADR-RES ovarian) [µM] | TGI (M14 melanoma) [µM] | TGI (MDA-N) [µM] | TGI (CAKI-1 renal) [µM] | TGI (SF-539 CNS) [µM] | TGI (LOX IMVI melanoma) [µM] | TGI (SK-MEL-28 melanoma) [µM]
CCCCNC(=S)Nc1nc(C(=O)NNC(=S)Nc2ccccc2)cs1 | > 100 | > 100 | > 100 | > 100 | > 100 | > 100 | > 100 | > 100 | > 100 | > 100 | > 100 | > 100 | > 100 |  | 
CSc1nc(Nc2cccc(C(F)(F)F)c2)c2c(N)nn(C)c2n1 | > 100 | > 100 | > 100 | > 100 | > 100 | > 100 | > 100 | > 100 | > 100 | > 100 | > 100 | > 100 |  | > 100 | > 100
N#Cc1c(-c2ccc(Cl)cc2Cl)nc2[nH][nH]c(=S)n2c1=O | > 100 | > 100 | > 100 | > 100 |  | > 100 | > 100 | > 100 | > 100 | > 100 | > 100 | > 100 |  | > 100 | > 100
Cn1c(=O)c2c(nc(Cc3ccccc3)n2CC(=O)O)n(C)c1=O | > 100 | > 100 | > 100 | > 100 | > 100 | > 100 | > 100 | > 100 | > 100 | > 100 | > 100 | > 100 |  | > 100 | > 100
CCCCCCOC(=O)/C=C/[C@]1(CO)C/C(=C/CC(C(C)C)C(C)C)C(=O)O1 | 15.1 | 22.9 | 25 |  | 29.8 | 33.3 | 20.8 | 14 | 28.1 | 25.1 | 5.35 | 23.7 |  | 24.6 | 23.2
N#Cc1c(N)nc2n[nH]c(N)c2c1-c1ccc(Cl)cc1 | > 74.4 | 12.7 | 29.8 | > 100 | 18.2 | > 100 | > 58.6 |  | 61.6 | > 39.8 | > 100 | 29.3 | 45 | 16.9 | > 100
COC(=O)C1=C(O)C(C(=O)OC)[C@]2(O)[C@H](C(=O)OC)[C@H]1C[C@@H](c1ccc(C(F)(F)F)cc1)[C@H]2C(=O)OC (stereo partly specified) | > 100 | > 100 | 21.7 |  | 54.1 | 53.3 | 25.1 | 22.5 |  | 29.4 | 17.2 | > 100 | 4 | 7.3 | 35.4
Nc1nc(N)c2c3c(cnc2n1)CC(c1ccccc1)CC3 (stereo unspecified) | > 100 | 81.8 |  |  | > 100 | > 100 | 66.2 | 97.9 | > 100 | > 100 | > 100 | > 100 | > 100 | 21.6 | > 100
CC#CCOC(=O)c1ccccc1OC(C)=O | > 100 | > 100 | > 100 | > 100 |  | > 100 |  | > 100 | > 100 | > 100 | > 100 | > 100 | > 100 | > 100 | 
Nc1ncnc2c1ncn2[C@@H]1C[C@@H]1CO | > 100 | > 100 | > 100 | > 100 | > 100 | > 100 | > 100 |  | > 100 |  | > 100 |  | > 100 | > 100 | 
CC(C)=CC[C@]12CCN[C@H]1N(S(=O)(=O)c1ccccc1)c1ccccc12 | 32.5 | 33.7 | > 100 | > 100 | 30.6 | 76.3 | 39 | > 100 | 30.5 |  | 29.1 | 69.4 | 36.9 | 31.2 | 31.5
CCOC(=O)CN1C(=O)c2ccc(NC(=O)C(=O)O)cc2S1(=O)=O | > 100 | > 100 | > 100 | > 100 |  | > 100 | > 100 | > 100 | > 100 | > 100 | > 100 | > 100 |  | > 100 | > 100
CC12CC(c3ccccc3O1)C(C(=O)Nc1ccc(Cl)cc1Cl)C(=O)N2 (stereo unspecified) | > 100 | > 100 | > 100 | 30.1 | > 100 | > 100 | > 100 |  | > 100 | 31.9 | > 100 | > 100 | > 100 | 49.5 | > 100

Source: PubChem BioAssay (NCI)
